# Measured values from patent US8163909B2, “Substituted hydroxyethyl amine compounds as beta-secretase modulators and methods of use” (Amgen Inc., priority 2007, dated 2012).
# Where two headings read alike, the source gives them in different places.
# Key:
# [1] = molecular target: Beta Secretase enzyme (BACE) (Homo sapiens, UniProt P56817); test: In vitro enzymatic BACE FRET (fluorescence resonance energy transfer) assay; format: biochemical;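 also: fluorescence read after 1 h with 50 nM quenched peptide substrate spanning the BACE cleavage site, in pH 4.2 acetate buffer containing 10% DMSO and nonionic detergent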
# Beta Secretase enzyme (BACE), sequence (P56817 46-501): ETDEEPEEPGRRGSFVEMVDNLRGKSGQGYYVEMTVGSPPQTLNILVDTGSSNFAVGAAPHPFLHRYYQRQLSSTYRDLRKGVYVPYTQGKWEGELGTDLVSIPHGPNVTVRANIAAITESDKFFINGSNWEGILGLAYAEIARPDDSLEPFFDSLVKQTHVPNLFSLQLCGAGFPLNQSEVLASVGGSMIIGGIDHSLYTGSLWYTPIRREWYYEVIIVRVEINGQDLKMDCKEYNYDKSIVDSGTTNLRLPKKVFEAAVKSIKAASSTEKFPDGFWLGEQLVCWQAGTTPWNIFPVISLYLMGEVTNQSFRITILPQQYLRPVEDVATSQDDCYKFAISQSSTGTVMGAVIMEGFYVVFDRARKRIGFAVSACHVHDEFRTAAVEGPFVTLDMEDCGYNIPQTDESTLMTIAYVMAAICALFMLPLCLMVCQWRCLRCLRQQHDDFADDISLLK
# [2] = test system: Aβ40 in conditioned medium of cells stably expressing Amyloid Precursor Protein (APP); test: In vitro BACE cell-based assay (Aβ40 in conditioned medium, sandwich ELISA);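 also: compounds added as a dilution series, secreted peptide quantified by europium time-resolved fluorescence readout, potency fitted from percent of control versus compound concentration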
# [3] = Microsomal stability assay, rat liver microsomes;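 also: rat liver microsomes (0.25 mg/mL) with about 1 µM compound plus 1 mM NADPH, pH 7.4, 37 °C for 30 min, parent left measured by LC-MS/MS against 0 min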
# [4] = Microsomal stability assay, human liver microsomes;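 also: pooled human liver microsomes at 0.25 mg/mL with 1 µM compound and NADPH at 37 °C, pH 7.4, for 30 min, unchanged parent quantified by LC-MS/MS against the 0 min sample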
# [5] = molecular target: CYP2D6 (Homo sapiens, UniProt P10635); test: CYP2D6 inhibition assay (bufuralol, pooled human liver microsomes)
# CYP2D6, sequence (P10635 whole entry): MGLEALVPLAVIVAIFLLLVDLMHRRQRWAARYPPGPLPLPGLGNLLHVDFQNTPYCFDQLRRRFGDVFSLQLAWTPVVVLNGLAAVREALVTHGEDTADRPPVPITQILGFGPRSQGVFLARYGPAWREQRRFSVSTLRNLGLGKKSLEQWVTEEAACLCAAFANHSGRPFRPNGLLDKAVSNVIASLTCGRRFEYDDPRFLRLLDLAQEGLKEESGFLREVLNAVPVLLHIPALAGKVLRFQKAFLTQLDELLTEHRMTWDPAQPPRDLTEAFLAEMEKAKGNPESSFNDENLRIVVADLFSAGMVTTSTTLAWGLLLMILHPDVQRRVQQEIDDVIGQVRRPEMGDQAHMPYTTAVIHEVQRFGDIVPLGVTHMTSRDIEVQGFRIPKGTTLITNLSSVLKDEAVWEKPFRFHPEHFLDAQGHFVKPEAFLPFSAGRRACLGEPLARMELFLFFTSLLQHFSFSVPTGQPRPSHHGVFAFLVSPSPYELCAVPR
# [6] = BACE enzyme assay, IC50's in uM, read-out: BACE1 FRET assay
# [7] = Homo sapiens, HEK293, cell-based assay, HEK cells, IC50's in uM, read-out: HEK cell assay
# [8] = 2D6 IC50, CYP enzyme inhibition
# [9] = read-out: BACE1 FRET assay (IC50)
# [10] = Homo sapiens, HEK293, HEK cells, read-out: HEK cell assay (IC50)
# [11] = BACE enzyme assay, read-out: BACE1 FRET assay
# [12] = BACE enzyme assay, read-out: BACE1 FRET assay (IC50)
# [13] = Homo sapiens, HEK293, HEK cells, cell-based assay, read-out: HEK cell assay (IC50)
# [14] = BACE enzyme FRET assay, read-out: BACE1 FRET assay (IC50)
# [15] = HEK cells, cell-based assay, read-out: HEK cell assay (IC50)
smiles,measurement,setting,value
C#Cc1cccc(C[C@H](NC(=O)[C@@H]2CCCO2)[C@H](O)CN[C@H]2CC3(CCC3)Oc3ncc(CC(C)(C)C)cc32)c1F [compound 913],IC50,[1]; [6],0.021 µM
same,IC50,[2]; [7],0.063 µM
same,RLM,[3]; rat liver microsomal data,76 µL/min/mg
same,HLM,[4]; human liver microsomal data,41 µL/min/mg
same,IC50,[5]; [8],7.1 µM
CO[C@H](C)C(=O)N[C@@H](Cc1cccc(C#N)c1)[C@H](O)CN[C@H]1CC2(CCC2)Oc2c(-c3ccncc3)cc(CC(C)C)cc21 [compound 620],IC50,[1]; [9],0.01 µM
same,IC50,[2]; [10],0.005 µM
same,RLM,[3]; rat liver microsomes,105 µL/min/mg
same,HLM,[4]; human liver microsomes,48 µL/min/mg
same,IC50,"[5]; 2D6 IC50, CYP2D6 inhibition",1.9 µM
C#Cc1cccc(C[C@H](NC(=O)[C@H]2CCCO2)[C@H](O)CN[C@H]2CC3(CCC3)Oc3ncc(CC(C)(C)C)cc32)c1 [compound 896],IC50,[1]; [6],0.006 µM
same,IC50,[2]; [7],0.009 µM
same,RLM,[3]; rat liver microsomal data,73 µL/min/mg
same,HLM,[4]; human liver microsomal data,45 µL/min/mg
same,IC50,[5]; [8],3.8 µM
CC(=O)N[C@@H](Cc1cc(F)cc(F)c1)[C@H](O)CN[C@H]1CC2(CCC2)Oc2c1cc(C1CC1)cc2-n1ccnc1 [compound 705],IC50,"[1]; BACE enzyme assay IC50, read-out: BACE1 FRET assay",0.032 µM
same,IC50,"[2]; Homo sapiens, HEK293, HEK cell-based assay IC50, read-out: HEK cell assay",0.013 µM
same,RLM,[3]; rat liver microsomes,36 µL/min/mg
same,HLM,[4]; human liver microsomes,51 µL/min/mg
same,IC50,"[5]; 2D6 IC50 (uM), CYP2D6 inhibition",0.6 µM
CC(C)(C)Cc1cnc2c(c1)[C@@H](NC[C@@H](O)[C@H](Cc1ccc3c(c1)OCO3)NC(=O)C(C)(C)C)CC1(CCC1)O2 [compound 882],IC50,[1]; [6],6.25 µM
same,IC50,[2]; [7],2.58 µM
same,RLM,[3]; rat liver microsomal data,103 µL/min/mg
same,HLM,[4]; human liver microsomal data,40 µL/min/mg
same,IC50,[5]; [8],0.5 µM
C#Cc1cc(C[C@H](NC(=O)CC)[C@H](O)CN[C@H]2CC3(CCC3)Oc3ncc(CC(C)(C)C)cc32)ccc1F [compound 848],IC50,[1]; [6],0.005 µM
same,IC50,[2]; [7],0.019 µM
same,RLM,[3]; rat liver microsomal data,60 µL/min/mg
same,HLM,[4]; human liver microsomal data,36 µL/min/mg
same,IC50,[5]; [8],0.9 µM
CO[C@H](C)C(=O)N[C@@H](Cc1cncs1)[C@H](O)CN[C@H]1CC2(CCC2)Oc2c(-c3ccncc3)cc(CC(C)(C)C)cc21 [compound 632],IC50,[1]; [9],0.065 µM
same,IC50,[2]; [10],0.015 µM
same,RLM,[3]; rat liver microsomes,166 µL/min/mg
same,HLM,[4]; human liver microsomes,57 µL/min/mg
same,IC50,"[5]; 2D6 IC50, CYP2D6 inhibition",3.1 µM
COCC(=O)N[C@@H](Cc1cccc(C(C)=O)c1)[C@H](O)CN[C@H]1CC2(CCC2)Oc2ncc(CC(C)(C)C)cc21 [compound 872],IC50,[1]; [6],0.007 µM
same,IC50,[2]; [7],0.009 µM
same,RLM,[3]; rat liver microsomal data,278 µL/min/mg
same,HLM,[4]; human liver microsomal data,382 µL/min/mg
same,IC50,[5]; [8],5.7 µM
CO[C@H](C)C(=O)N[C@@H](Cc1cc(F)cc(F)c1)[C@H](O)CN[C@H]1CC2(CCC2)Oc2c(-c3ccncc3)cc(CC(C)(C)F)cc21 [compound 590],IC50,[1]; [9],0.024 µM
same,IC50,[2]; [10],0.007 µM
same,RLM,[3]; rat liver microsomes,105 µL/min/mg
same,HLM,[4]; human liver microsomes,60 µL/min/mg
same,IC50,"[5]; 2D6 IC50, CYP2D6 inhibition",0.6 µM
COCC(=O)N[C@@H](Cc1cc(F)cc(F)c1)[C@H](O)CN[C@H]1CC2(CCC2)Oc2c1cc(Cl)cc2-n1ccnc1 [compound 581],IC50,[1]; [9],0.081 µM
same,IC50,[2]; [10],0.075 µM
same,RLM,[3]; rat liver microsomes,124 µL/min/mg
same,HLM,[4]; human liver microsomes,91 µL/min/mg
COCC(=O)N[C@@H](Cc1cccc(F)c1)[C@H](O)CN[C@H]1CC2(CCC2)Oc2c1cc(Cl)cc2-n1ccnc1 [compound 553],IC50,[1]; [11],0.146 µM
same,RLM,[3]; rat liver microsomal data,86 µL/min/mg
same,HLM,[4]; human liver microsomal data,47 µL/min/mg
CO[C@@H](C)C(=O)N[C@@H](Cc1ccc2c(c1)OCO2)[C@H](O)CN[C@H]1CC2(CCC2)Oc2c1cc(CC(C)(C)C)nc2N(C)C [compound 443],IC50,"[1]; Table 2, read-out: BACE1 FRET assay",0.065 µM
same,IC50,"[2]; Homo sapiens, HEK293, Table 2, HEK cells, read-out: HEK cell assay",0.175 µM
same,RLM,[3]; rat liver microsomal data,232 µL/min/mg
same,HLM,[4]; human liver microsomal data,190 µL/min/mg
CCO[C@H](C)C(=O)N[C@@H](Cc1ccc2c(c1)OCO2)[C@H](O)CN[C@H]1CC2(CCC2)Oc2ncc(CC(C)(C)C)cc21 [compound 887],IC50,[1]; [6],0.102 µM
same,IC50,[2]; [7],0.052 µM
same,RLM,[3]; rat liver microsomal data,136 µL/min/mg
same,HLM,[4]; human liver microsomal data,37 µL/min/mg
COCC(=O)N[C@@H](Cc1ccc2c(c1)OCO2)[C@H](O)CN[C@H]1CC2(CCC2)Oc2ccc(C[C@@H](C)F)cc21 [compound 558],IC50,[1]; [11],0.25 µM
same,IC50,"[2]; Homo sapiens, HEK293, HEK cells, read-out: HEK cell assay",0.336 µM
same,RLM,[3]; rat liver microsomal data,362 µL/min/mg
same,HLM,[4]; human liver microsomal data,167 µL/min/mg
COCC(=O)N[C@@H](Cc1ccc2c(c1)OCO2)[C@H](O)CN[C@H]1CC2(CCC2)Oc2cnc(CC(C)(C)C)cc21 [compound 119],IC50,[1]; [12],0.203 µM
same,IC50,[2]; [13],0.127 µM
COCC(=O)N[C@@H](Cc1ccc2c(c1)OCO2)[C@H](O)CN[C@H]1CC2(CCC2)Oc2ncc(CC3(C(F)(F)F)CC3)cc21 [compound 313],IC50,[1]; [14],0.151 µM
same,IC50,[2]; [13],0.327 µM
CO[C@H](C)C(=O)N[C@@H](Cc1ccc2c(c1)OCO2)[C@H](O)CN[C@H]1CC2(CCC2)Oc2ncc(CC(C)(F)F)cc21 [compound 279],IC50,[1]; [14],0.126 µM
same,IC50,[2]; [13],0.108 µM
CC(=O)N[C@@H](Cc1ccc(F)cc1)[C@H](O)CN[C@H]1CC2(CCC2)Oc2ncc(CC(C)(C)C(F)F)cc21 [compound 159],IC50,[1]; [12],0.0192 µM
same,IC50,[2]; [13],0.0363 µM
C#Cc1cccc(C[C@H](NC(=O)[C@@H]2CCCO2)[C@H](O)CN[C@H]2CC3(CCC3)Oc3ncc(CC(C)(C)C)cc32)c1 [compound 897],IC50,[1]; [6],0.005 µM
same,IC50,[2]; [7],0.007 µM
same,RLM,[3]; rat liver microsomal data,55 µL/min/mg
same,IC50,[5]; [8],3.6 µM
"COC(C)C(=O)NC(Cc1ccc2c(c1)OCO2)C(O)CNC1CC2(CC(O)C2)Oc2ccc(CC(C)(C)C)cc21 [compound 268, (2R)—N-((1S,2R)-1-(1,3-benzodioxol-5-ylmethyl)-3-(((2s,3′S,4S)-6-(2,2-dimethylpropyl)-3′-hydroxy-3,4-dihydrospiro[chromene-2,1′-cyclobutan]-4-yl)amino)-2-hydroxypropyl)-2-(methyloxy)propanamide]",IC50,[1]; [14],0.0187 µM
same,IC50,[2]; [15],0.0151 µM
COCC(=O)N[C@@H](Cc1ccccc1)[C@H](O)CN[C@H]1CC2(CCC2)Oc2c1cc(CC(C)(C)C)nc2N(C)C [compound 113],IC50,[1]; [12],0.0265 µM
same,IC50,[2]; [13],0.497 µM
COCC(=O)NC(Cc1cc(F)cc(F)c1)C(O)CNC1CC2(CCC2)Oc2ncc(C(O)C(F)(F)F)cc21 (stereo not drawn) [compound 349],IC50,"[1]; Table 1, read-out: BACE1 FRET assay",0.166 µM
same,IC50,"[2]; Homo sapiens, HEK293, Table 1, HEK cells, read-out: HEK cell assay",0.139 µM
CO[C@H](C(=O)N[C@@H](Cc1ccc(F)cc1)[C@H](O)CN[C@H]1CC2(CCC2)Oc2ncc(CC(C)(C)C)cc21)C(F)(F)F [compound 64],IC50,[1]; [12],0.617 µM
same,IC50,[2]; [13],0.0797 µM
"COCC(=O)NC(Cc1ccc2c(c1)OCO2)C(O)CNC1CC2(CC(C)C2)Oc2ncc(CC(C)(C)C)cc21 [compound 238, N-((1S,2R)-1-(1,3-benzodioxol-5-ylmethyl)-3-(((1s,3R,4′S)-6′-(2,2-dimethylpropyl)-3-methyl-3′,4′-dihydrospiro[cyclobutane-1,2′-pyrano[2,3-b]pyridin]-4′-yl)amino)-2-hydroxypropyl)-2-(methyloxy)acetamide]",IC50,[1]; [14],0.0184 µM
same,IC50,[2]; [13],0.0327 µM
"COCC(=O)N[C@@H](Cc1cccc(F)c1)[C@H](O)CN[C@H]1C[C@]2(C[C@H](O)C2)Oc2ncc(CC(C)(C)C)cc21 [compound 232, N-((1S,2R)-3-(((1s,3S,4′S)-6′-(2,2-dimethylpropyl)-3-hydroxy-3′,4′-dihydrospiro[cyclobutane-1,2′-pyrano[2,3-b]pyridin]-4′-yl)amino)-1-((3-fluorophenyl)methyl)-2-hydroxypropyl)-2-(methyloxy)acetamide]",IC50,[1]; [14],0.00234 µM
same,IC50,[2]; [15],0.00327 µM
CC(=O)N[C@@H](Cc1ccc2c(c1)OCO2)[C@H](O)CN[C@H]1CC2(CCC2)Oc2ncc(CC(C)(C)CF)cc21 [compound 178],IC50,[1]; [12],0.00839 µM
same,IC50,[2]; [13],0.0175 µM
COCC(=O)N[C@@H](Cc1ccc2c(c1)OCO2)[C@H](O)CN[C@H]1CC2(CCC2)Oc2ncc(CC(C)(C)CF)cc21 [compound 181],IC50,[1]; [12],0.0155 µM
same,IC50,[2]; [13],0.0176 µM
CC(=O)N[C@@H](Cc1ccc(F)cc1)[C@H](O)CN[C@H]1CC2(CCC2)Oc2ccc(CC(C)(C)F)cc21 [compound 200],IC50,[1]; [14],0.206 µM
same,IC50,[2]; [13],0.375 µM
"COC(C)C(=O)NC(Cc1ccc2c(c1)OCO2)C(O)CNC1CC2(CC(O)C2)Oc2ncc(CC(C)C)cc21 [compound 248, (2R)—N-((1S,2R)-1-(1,3-benzodioxol-5-ylmethyl)-2-hydroxy-3-(((1s,3S,4′S)-3-hydroxy-6′-(2-methylpropyl)-3′,4′-dihydrospiro[cyclobutane-1,2′-pyrano[2,3-b]pyridin]-4′-yl)amino)propyl)-2-(methyloxy)propanamide]",IC50,[1]; [14],0.0172 µM
same,IC50,[2]; [13],0.035 µM
COCC(=O)N[C@@H](Cc1ccc2c(c1)OCO2)[C@H](O)CN[C@H]1CC2(CCC2)Oc2ncc(CC(C)(C)C#N)cc21 [compound 87],IC50,[1]; [12],0.117 µM
same,IC50,[2]; [13],0.0828 µM
COCC(=O)N[C@@H](Cc1cccc(C#N)c1)[C@H](O)CN[C@H]1CC2(CCC2)Oc2ncc(CC(C)(C)F)cc21 [compound 57],IC50,[1]; [12],0.00294 µM
same,IC50,[2]; [13],0.0053 µM
COCC(=O)N[C@@H](Cc1ccccc1)[C@H](O)CN[C@H]1CC2(CCC2)Oc2ncc(CC(C)(F)F)cc21 [compound 273],IC50,[1]; [14],0.0149 µM
same,IC50,[2]; [13],0.0265 µM
